From the supplement of paper PMC11061612

Experiments:
AZD5363 = compound: C1CN(CCC1(C(=O)N[C@@H](CCO)C2=CC=C(C=C2)Cl)N)C3=NC=NC4=C3C=CN4 [AZD5363]; details: max 10 µM
Outline: (§1)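 In 1536-well plates, cancer cell lines in 7.5 μl DMEM/F12 or RPMI with 10% FBS spent 24 hours at 37°C and 5% CO2 and were then dosed for 72 hours with final DMSO typically 0.2%. Viability was read by CellTiter-Glo 2.0 luminescence and scaled between blank-well and DMSO-well means. The single-agent IC50 was fitted from dose responses using a logistic curve in a non-linear mixed effects model, and that logistic curve had two parameters.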

AZD1775 = compound: C=CCn1c(=O)c2cnc(Nc3ccc(N4CCN(C)CC4)cc3)nc2n1-c1cccc(C(C)(C)O)n1 [AZD1775]; details: max 3 µM
Outline: as §1

AZD4320 = compound: CN(CC[C@H](CSC1=CC=CC=C1)NC2=C(C=C(C=C2)S(=O)(=O)NC(=O)C3=CC=C(C=C3)N4CCC(CC4)[C@H](C5=CC=CC=C5C6=CC=C(C=C6)Cl)O)S(=O)(=O)C(F)(F)F)CCO [AZD4320]; details: max 1 µM
Outline: as §1

AZD5153 = compound: COc1nnc2ccc(N3CCC(c4ccc(OCCN5CCN(C)C(=O)[C@H]5C)cc4)CC3)nn12 [AZD5153]; details: max 1 µM
Outline: as §1

AZD5991 = compound: Cc1c2c(nn1C)CSCc1cc(n(C)n1)CSc1cc(c3ccccc3c1)OCCCc1c(C(=O)O)n(C)c3c-2c(Cl)ccc13 [AZD5991]; details: max 1 µM
Outline: as §1

Savolitinib = compound: C[C@@H](c1ccc2nccn2c1)n1nnc2ncc(-c3cnn(C)c3)nc21 [Savolitinib]; details: max 1 µM
Outline: as §1

AZD7648 = compound: Cc1cc2ncnn2cc1Nc1ncc2c(n1)n(C1CCOCC1)c(=O)n2C [AZD7648]; details: max 10 µM
Outline: as §1

SN-38 = compound: CCc1c2c(nc3ccc(O)cc13)-c1cc3c(c(=O)n1C2)COC(=O)[C@]3(O)CC [SN-38]; details: max 0.3 µM
Outline: as §1

Palbociclib = compound: CC(=O)c1c(C)c2cnc(Nc3ccc(N4CCNCC4)cn3)nc2n(C2CCCC2)c1=O [Palbociclib]; details: max 10 µM
Outline: as §1

SRA737 = compound: N#Cc1cnc(Nc2cc(NC[C@H]3CNCCO3)c(C(F)(F)F)cn2)cn1 [SRA737]; details: max 10 µM
Outline: as §1

MK-2206 = compound: NC1(c2ccc(-c3nc4ccn5c(=O)[nH]nc5c4cc3-c3ccccc3)cc2)CCC1 [MK-2206]; details: max 10 µM
Outline: as §1

AZD6738 = compound: C[C@@H]1COCCN1C2=NC(=NC(=C2)C3(CC3)[S@](=N)(=O)C)C4=C5C=CNC5=NC=C4 [AZD6738]; details: max 10 µM
Outline: as §1

AZD8186 = compound: C[C@@H](Nc1cc(F)cc(F)c1)c1cc(C(=O)N(C)C)cc2c(=O)cc(N3CCOCC3)oc12 [AZD8186]; details: max 10 µM
Outline: as §1

Taselisib = compound: Cc1nc(-c2cn3c(n2)-c2ccc(-c4cnn(C(C)(C)C(N)=O)c4)cc2OCC3)n(C(C)C)n1 [Taselisib]; details: max 10 µM
Outline: as §1

Carboplatin = compound: C1CC(C1)(C(=O)[O-])C(=O)[O-].N.N.[Pt+2] [Carboplatin]; details: max 10 µM
Outline: as §1

Alisertib = compound: COc1cc(Nc2ncc3c(n2)-c2ccc(Cl)cc2C(c2c(F)cccc2OC)=NC3)ccc1C(=O)O [Alisertib]; details: max 10 µM
Outline: as §1

Gemcitabine = compound: Nc1ccn([C@@H]2O[C@H](CO)[C@@H](O)C2(F)F)c(=O)n1 [Gemcitabine]; details: max 0.3 µM
Outline: as §1

Gefitinib = compound: COc1cc2ncnc(Nc3ccc(F)c(Cl)c3)c2cc1OCCCN1CCOCC1 [Gefitinib]; details: max 10 µM
Outline: as §1

Prexasertib = compound: COc1cccc(OCCCN)c1-c1cc(Nc2cnc(C#N)cn2)n[nH]1 [Prexasertib]; details: max 1 µM
Outline: as §1

SG3199 = compound: CC1=CN2[C@@H](C1)C=NC3=CC(=C(C=C3C2=O)OC)OCCCCCOC4=C(C=C5C(=C4)N=C[C@@H]6CC(=CN6C5=O)C)OC [SG3199]; details: max 0.001 µM
Outline: as §1

Paclitaxel = compound: CC(=O)O[C@H]1C(=O)[C@@]2(C)[C@H]([C@H](OC(=O)c3ccccc3)[C@]3(O)C[C@H](OC(=O)[C@H](O)[C@@H](NC(=O)c4ccccc4)c4ccccc4)C(C)=C1C3(C)C)[C@]1(OC(C)=O)CO[C@@H]1C[C@@H]2O [Paclitaxel]; details: max 3 µM
Outline: as §1

AZD2811 = compound: CCN(CCO)CCCOc1ccc2c(Nc3cc(CC(=O)Nc4cccc(F)c4)[nH]n3)ncnc2c1 [AZD2811]; details: max 1 µM
Outline: as §1

AZD1390 = compound: CC(C)n1c(=O)n(C)c2cnc3cc(F)c(-c4ccc(OCCCN5CCCCC5)nc4)cc3c21 [AZD1390]; details: max 0.3 µM
Outline: as §1

Trametinib = compound: CC(=O)Nc1cccc(-n2c(=O)n(C3CC3)c(=O)c3c(Nc4ccc(I)cc4F)n(C)c(=O)c(C)c32)c1 [Trametinib]; details: max 1 µM
Outline: as §1

Etoposide = compound: COc1cc([C@@H]2c3cc4c(cc3[C@@H](O[C@@H]3O[C@@H]5CO[C@@H](C)O[C@H]5[C@H](O)[C@H]3O)[C@H]3COC(=O)[C@H]23)OCO4)cc(OC)c1O [Etoposide]; details: max 10 µM
Outline: as §1

Crizotinib = compound: C[C@@H](Oc1cc(-c2cnn(C3CCNCC3)c2)cnc1N)c1c(Cl)ccc(F)c1Cl [Crizotinib]; details: max 10 µM
Outline: as §1

Lapatinib = compound: CS(=O)(=O)CCNCc1ccc(-c2ccc3ncnc(Nc4ccc(OCc5cccc(F)c5)c(Cl)c4)c3c2)o1 [Lapatinib]; details: max 10 µM
Outline: as §1

Dasatinib = compound: CC1=C(C(=CC=C1)Cl)NC(=O)C2=CN=C(S2)NC3=CC(=NC(=N3)C)N4CCN(CC4)CCO [Dasatinib]; details: max 2 µM
Outline: as §1

AZD0156 = compound: CN(C)CCCOc1ccc(-c2ccc3ncc4c(c3c2)n(C2CCOCC2)c(=O)n4C)cn1 [AZD0156]; details: max 3 µM
Outline: as §1

Selumetinib = compound: Cn1cnc2c(F)c(Nc3ccc(Br)cc3Cl)c(C(=O)NOCCO)cc21 [Selumetinib]; details: max 10 µM
Outline: as §1

5-Fluorouracil = compound: O=c1[nH]cc(F)c(=O)[nH]1 [5-Fluorouracil]; details: max 20 µM
Outline: as §1

Olaparib = compound: O=C(c1cc(Cc2n[nH]c(=O)c3ccccc23)ccc1F)N1CCN(C(=O)C2CC2)CC1 [Olaparib]; details: max 10 µM
Outline: as §1

Doxorubicin = compound: COc1cccc2c1C(=O)c1c(O)c3c(c(O)c1C2=O)C[C@@](O)(C(=O)CO)C[C@@H]3O[C@H]1C[C@H](N)[C@H](O)[C@H](C)O1 [Doxorubicin]; details: max 1 µM
Outline: as §1

[1] = compound: O=C(Nc1ccc2[nH]nc(-c3ccncc3)c2c1)[C@@H]1CCN(CC(=O)N2CCN(c3ccc(-c4ncccn4)cc3)CC2)C1; details: max 5 µM
Outline: as §1

Venetoclax = compound: CC1(C)CCC(CN2CCN(c3ccc(C(=O)NS(=O)(=O)c4ccc(NCC5CCOCC5)c([N+](=O)[O-])c4)c(Oc4cnc5[nH]ccc5c4)c3)CC2)=C(c2ccc(Cl)cc2)C1 [Venetoclax]; details: max 1 µM
Outline: as §1

Cell Line	IC50, cell viability 72 h (AZD5363) [nM]	IC50, cell viability 72 h (AZD1775) [nM]	IC50, cell viability 72 h (AZD4320) [nM]	IC50, cell viability 72 h (AZD5153) [nM]	IC50, cell viability 72 h (AZD5991) [nM]	IC50, cell viability 72 h (Savolitinib) [nM]	IC50, cell viability 72 h (AZD7648) [nM]	IC50, cell viability 72 h (SN-38) [nM]	IC50, cell viability 72 h (Palbociclib) [nM]	IC50, cell viability 72 h (SRA737) [nM]	IC50, cell viability 72 h (MK-2206) [nM]	IC50, cell viability 72 h (AZD6738) [nM]	IC50, cell viability 72 h (AZD8186) [nM]	IC50, cell viability 72 h (Taselisib) [nM]	IC50, cell viability 72 h (Carboplatin) [nM]	IC50, cell viability 72 h (Alisertib) [nM]	IC50, cell viability 72 h (Gemcitabine) [nM]	IC50, cell viability 72 h (Gefitinib) [nM]	IC50, cell viability 72 h (Prexasertib) [nM]	IC50, cell viability 72 h (SG3199) [nM]	IC50, cell viability 72 h (Paclitaxel) [nM]	IC50, cell viability 72 h (AZD2811) [nM]	IC50, cell viability 72 h (AZD1390) [nM]	IC50, cell viability 72 h (Trametinib) [nM]	IC50, cell viability 72 h (Etoposide) [nM]	IC50, cell viability 72 h (Crizotinib) [nM]	IC50, cell viability 72 h (Lapatinib) [nM]	IC50, cell viability 72 h (Dasatinib) [nM]	IC50, cell viability 72 h (AZD0156) [nM]	IC50, cell viability 72 h (Selumetinib) [nM]	IC50, cell viability 72 h (5-Fluorouracil) [nM]	IC50, cell viability 72 h (Olaparib) [nM]	IC50, cell viability 72 h (Doxorubicin) [nM]	IC50, cell viability 72 h [1] [nM]	IC50, cell viability 72 h (Venetoclax) [nM]
VMRC-LCD (Lung Adenocarcinoma)	> 10000	> 3000	> 1000	802	> 1000	> 1000	> 10000	> 300	> 10000	> 10000	> 10000	> 10000	> 10000	> 10000	> 10000	668	> 300	> 10000	115	> 1	19	745	> 300	> 1000	> 10000	5710	> 10000	> 2000	> 3000	> 10000	> 20000	> 10000	> 1000	> 5000	> 1000
NCI-N87 (Gastric Carcinoma)	4230	1690	> 1000	> 1000	> 1000	> 1000	> 10000	59.8	> 10000	> 10000	6770	4360	> 10000	218	> 10000	> 10000	88.7	1960	75.5	> 1	430	> 1000	> 300	404	6740	> 10000	77	1850	> 3000	> 10000	> 20000	> 10000	423	> 5000	> 1000
HSC-2 (Oral Cavity Carcinoma)	> 10000	2130	> 1000	238	439	> 1000	> 10000	5.35	> 10000	> 10000	> 10000	8500	> 10000	171	> 10000	2400	18.2	3960	124	> 1	3.31	> 1000	> 300	> 1000	4420	> 10000	4010	176	> 3000	> 10000	> 20000	> 10000	367	> 5000	> 1000
JHH-7 (Hepatocellular Carcinoma)	> 10000	2610	> 1000	> 1000	> 1000	> 1000	> 10000	> 300	> 10000	> 10000	> 10000	> 10000	> 10000	> 10000	> 10000	> 10000	> 300	> 10000	> 1000	> 1	660	> 1000	> 300	> 1000	> 10000	> 10000	> 10000	> 2000	> 3000	> 10000	> 20000	> 10000	> 1000	> 5000	> 1000
OCUB-M (Breast Carcinoma)	429	> 3000	878	> 1000	104	> 1000	> 10000	49.2	> 10000	> 10000	1220	> 10000	> 10000	109	> 10000	2810	91.1	> 10000	463	> 1	9.26	73.4	> 300	> 1000	634	> 10000	4790	> 2000	> 3000	> 10000	> 20000	> 10000	241	> 5000	> 1000
